Assay: xn = mol fraction of the nth substance listed

CCCC[n+]1cccc(C)c1.F[B-](F)(F)F + O
298.15 K, 101 kPa
Conditions | electrical conductivity [S/m]
x1 = 0.0002144 | 0.107
x1 = 0.0004179 | 0.2
x1 = 0.0004845 | 0.232
x1 = 0.0007527 | 0.331
x1 = 0.001001 | 0.448
x1 = 0.001159 | 0.5
x1 = 0.00129 | 0.549
x1 = 0.001546 | 0.642
x1 = 0.001714 | 0.709
x1 = 0.001876 | 0.763
x1 = 0.002129 | 0.837
x1 = 0.002298 | 0.886
x1 = 0.002565 | 0.977
x1 = 0.002757 | 1.03
x1 = 0.002862 | 1.08
x1 = 0.003167 | 1.15
x1 = 0.003324 | 1.2

CCCn1cc[n+](C)c1.O=S(=O)([N-]S(=O)(=O)C(F)(F)F)C(F)(F)F + O
100 kPa, x2 = 0.272
Conditions | viscosity [mPa·s]
308.15 K | 18.83
318.15 K | 13.95
323.15 K | 12.19
343.15 K | 7.64
353.15 K | 6.25

CC[NH+](C)CC.O=S(=O)([O-])C(F)(F)F + O
101 kPa
Conditions | viscosity [mPa·s]
293.15 K, x2 = 0.759 | 7.65
313.15 K, x2 = 0.037 | 25.8
333.15 K, x2 = 0.434 | 7.33
333.15 K, x2 = 0.759 | 2.81
333.15 K, x2 = 0.844 | 1.94
353.15 K, x2 = 0.434 | 4.89
353.15 K, x2 = 0.759 | 2.01

CC[n+]1ccn(C)c1.N#C[N-]C#N + O
Conditions | electrical conductivity [S/m] | viscosity [mPa·s]
288.15 K, 100 kPa, x2 = 0 | – | 20
288.15 K, 100 kPa, x2 = 0.1016 | – | 17.49
288.15 K, 100 kPa, x2 = 0.2014 | – | 15.14
288.15 K, 100 kPa, x2 = 0.2999 | – | 13.02
288.15 K, 100 kPa, x2 = 0.4015 | – | 11.08
288.15 K, 100 kPa, x2 = 0.5106 | – | 9.24
288.15 K, 100 kPa, x2 = 0.5934 | – | 7.86
288.15 K, 100 kPa, x2 = 0.7465 | – | 5.45
288.15 K, 100 kPa, x2 = 0.7974 | – | 4.58
288.15 K, 100 kPa, x2 = 0.9004 | – | 2.76
288.15 K, 100 kPa, x2 = 0.9498 | – | 1.93
293.15 K, 100 kPa, x2 = 0 | – | 16.9
293.15 K, 100 kPa, x2 = 0.1016 | – | 14.89
293.15 K, 100 kPa, x2 = 0.2014 | – | 12.98
293.15 K, 100 kPa, x2 = 0.2999 | – | 11.23
293.15 K, 100 kPa, x2 = 0.4015 | – | 9.59
293.15 K, 100 kPa, x2 = 0.5106 | – | 8
293.15 K, 100 kPa, x2 = 0.5934 | – | 6.83
293.15 K, 100 kPa, x2 = 0.7465 | – | 4.74
293.15 K, 100 kPa, x2 = 0.7974 | – | 3.99
293.15 K, 100 kPa, x2 = 0.9004 | – | 2.41
293.15 K, 100 kPa, x2 = 0.9498 | – | 1.69
293.2 K, 101 kPa, x2 = 0.6 | 4.47 | –
293.2 K, 101 kPa, x2 = 0.8 | 5.69 | –
298.15 K, 100 kPa, x2 = 0 | – | 14.54
298.15 K, 100 kPa, x2 = 0.1016 | – | 12.86
298.15 K, 100 kPa, x2 = 0.2014 | – | 11.23
298.15 K, 100 kPa, x2 = 0.2999 | – | 9.77
298.15 K, 100 kPa, x2 = 0.4015 | – | 8.37
298.15 K, 100 kPa, x2 = 0.5106 | – | 7.01
298.15 K, 100 kPa, x2 = 0.5934 | – | 5.99
298.15 K, 100 kPa, x2 = 0.7465 | – | 4.16
298.15 K, 100 kPa, x2 = 0.7974 | – | 3.5
298.15 K, 100 kPa, x2 = 0.9004 | – | 2.13
298.15 K, 100 kPa, x2 = 0.9498 | – | 1.5
298.15 K, 101 kPa, x2 = 0 | – | 14.9
298.15 K, 101 kPa, x2 = 0.2248 | – | 11.24
298.15 K, 101 kPa, x2 = 0.3042 | – | 10.14
298.15 K, 101 kPa, x2 = 0.4308 | – | 8.39
298.15 K, 101 kPa, x2 = 0.7944 | – | 3.61
298.15 K, 101 kPa, x2 = 0.8803 | – | 2.46
303.15 K, 100 kPa, x2 = 0 | – | 12.63
303.15 K, 100 kPa, x2 = 0.1016 | – | 11.21
303.15 K, 100 kPa, x2 = 0.2014 | – | 9.84
303.15 K, 100 kPa, x2 = 0.2999 | – | 8.59
303.15 K, 100 kPa, x2 = 0.4015 | – | 7.38
303.15 K, 100 kPa, x2 = 0.5106 | – | 6.19
303.15 K, 100 kPa, x2 = 0.5934 | – | 5.29
303.15 K, 100 kPa, x2 = 0.7465 | – | 3.67
303.15 K, 100 kPa, x2 = 0.7974 | – | 3.09
303.15 K, 100 kPa, x2 = 0.9004 | – | 1.89
303.15 K, 100 kPa, x2 = 0.9498 | – | 1.34
308.15 K, 100 kPa, x2 = 0 | – | 11.05
308.15 K, 100 kPa, x2 = 0.1016 | – | 9.86
308.15 K, 100 kPa, x2 = 0.2014 | – | 8.69
308.15 K, 100 kPa, x2 = 0.2999 | – | 7.61
308.15 K, 100 kPa, x2 = 0.4015 | – | 6.55
308.15 K, 100 kPa, x2 = 0.5106 | – | 5.5
308.15 K, 100 kPa, x2 = 0.5934 | – | 4.71
308.15 K, 100 kPa, x2 = 0.7465 | – | 3.27
308.15 K, 100 kPa, x2 = 0.7974 | – | 2.76
308.15 K, 100 kPa, x2 = 0.9004 | – | 1.7
308.15 K, 100 kPa, x2 = 0.9498 | – | 1.2
308.2 K, 101 kPa, x2 = 0.2 | 3.89 | –
308.2 K, 101 kPa, x2 = 0.6 | 6.36 | –
313.15 K, 100 kPa, x2 = 0 | – | 9.76
313.15 K, 100 kPa, x2 = 0.1016 | – | 8.74
313.15 K, 100 kPa, x2 = 0.2014 | – | 7.73
313.15 K, 100 kPa, x2 = 0.2999 | – | 6.79
313.15 K, 100 kPa, x2 = 0.4015 | – | 5.86
313.15 K, 100 kPa, x2 = 0.5106 | – | 4.93
313.15 K, 100 kPa, x2 = 0.5934 | – | 4.23
313.15 K, 100 kPa, x2 = 0.7465 | – | 2.93
313.15 K, 100 kPa, x2 = 0.7974 | – | 2.48
313.15 K, 100 kPa, x2 = 0.9004 | – | 1.53
313.15 K, 100 kPa, x2 = 0.9498 | – | 1.09
313.15 K, 101 kPa, x2 = 0.2248 | – | 7.79
313.15 K, 101 kPa, x2 = 0.8803 | – | 1.73
313.15 K, 101 kPa, x2 = 0.953 | – | 1.08
313.2 K, 101 kPa, x2 = 0.2 | 4.32 | –
313.2 K, 101 kPa, x2 = 0.8 | 8.83 | –
318.15 K, 100 kPa, x2 = 0 | – | 8.69
318.15 K, 100 kPa, x2 = 0.1016 | – | 7.79
318.15 K, 100 kPa, x2 = 0.2014 | – | 6.92
318.15 K, 100 kPa, x2 = 0.2999 | – | 6.1
318.15 K, 100 kPa, x2 = 0.4015 | – | 5.27
318.15 K, 100 kPa, x2 = 0.5106 | – | 4.45
318.15 K, 100 kPa, x2 = 0.5934 | – | 3.81
318.15 K, 100 kPa, x2 = 0.7465 | – | 2.64
318.15 K, 100 kPa, x2 = 0.7974 | – | 2.24
318.15 K, 100 kPa, x2 = 0.9004 | – | 1.39
318.15 K, 100 kPa, x2 = 0.9498 | – | 0.99
318.2 K, 101 kPa, x2 = 0.2 | 4.77 | –
328.15 K, 101 kPa, x2 = 0.7944 | – | 1.9
328.2 K, 101 kPa, x2 = 0.2 | 5.74 | –
338.2 K, 101 kPa, x2 = 0.4 | 8.22 | –
338.2 K, 101 kPa, x2 = 0.6 | 10.6 | –
343.15 K, 101 kPa, x2 = 0 | – | 5.48

From the CheMixHub ionic liquid set
